# Assay results reported in US20260262643A1, “HERBICIDAL BENZOXAZINES” (FMC CORPORATION, priority 2022, published 2026).
# How the values were obtained:
# [1] = system: ducksalad; assay: Test D flooded paddy test; format: in vivo, Heteranthera limosa; conditions: 250 g ai/ha, applied to paddy water, visual rating after 13 to 14 days, scale 0 to 100 (0 no effect, 100 complete control)
# Outline: (§1)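 Plants at the 2-leaf stage were grown in pots flooded to 3 cm, and compound was applied directly into the paddy water, with depth kept throughout. After 13–14 days in a greenhouse, injury was rated visually against untreated controls on a 0–100 scale (100 = complete control); a dash means not tested.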
# [2] = system: galium; assay: Test C postemergence; format: in vivo, Galium aparine; conditions: 10 days, 0 to 100 scale (0 no effect, 100 complete control)
# Outline: (§2)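 Soil-applied (pre) and foliar (post, 1–2 leaf, 2–10 cm) sprays; surfactant-containing non-phytotoxic solvent vehicle; loam/sand substrate. Readout: visual % control at 10 d, greenhouse, versus untreated.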
# [3] = system: ryegrass, Italian; assay: Test C preemergence; format: in vivo, Lolium multiflorum
# Outline: as §2
# [4] = system: horseweed; assay: Test C postemergence; format: in vivo, Erigeron canadensis; conditions: 10 days, 0 to 100 scale (0 no effect, 100 complete control)
# Outline: as §2
# [5] = system: soybean; assay: Test C preemergence; format: in vivo, Glycine max
# Outline: as §2
# [6] = system: pigweed, palmer; assay: Test C postemergence; format: in vivo, Amaranthus palmeri; conditions: 10 days, 0 to 100 scale (0 no effect, 100 complete control)
# Outline: as §2
# [7] = system: blackgrass; assay: Test C postemergence; format: in vivo, Alopecurus myosuroides; conditions: 10 days, 0 to 100 scale (0 no effect, 100 complete control)
# Outline: as §2
# [8] = system: oat, wild; assay: Test C preemergence; format: in vivo, Avena fatua
# Outline: as §2
# [9] = system: ragweed; assay: Test C postemergence; format: in vivo, Ambrosia artemisiifolia; conditions: 10 days, 0 to 100 scale (0 no effect, 100 complete control)
# Outline: as §2
# [10] = system: corn; assay: Test C preemergence; format: in vivo, Zea mays; conditions: 500 g ai/ha, preemergence; 0 to 100 scale (0 no effect, 100 complete control)
# Outline: as §2
# [11] = system: wheat; assay: Test C postemergence; format: in vivo, Triticum aestivum; conditions: 10 days, 0 to 100 scale (0 no effect, 100 complete control)
# Outline: as §2
# [12] = system: soybean; assay: Test C postemergence; format: in vivo, Glycine max; conditions: 10 days, 0 to 100 scale (0 no effect, 100 complete control)
# Outline: as §2
# [13] = system: kochia; assay: Test C preemergence; format: in vivo, Bassia scoparia
# Outline: as §2
# [14] = system: oat, wild; assay: Test C postemergence; format: in vivo, Avena fatua; conditions: 10 days, 0 to 100 scale (0 no effect, 100 complete control)
# Outline: as §2
# [15] = system: barnyardgrass; assay: Test D flooded paddy test; format: in vivo, Echinochloa crus-galli; conditions: 250 g ai/ha, applied to paddy water, visual rating after 13 to 14 days, scale 0 to 100 (0 no effect, 100 complete control)
# Outline: as §1
# [16] = system: rice; assay: Test D flooded paddy test; format: in vivo, Oryza sativa; conditions: 250 g ai/ha, applied to paddy water, visual rating after 13 to 14 days, scale 0 to 100 (0 no effect, 100 complete control)
# Outline: as §1
# [17] = system: foxtail, giant; assay: Test C postemergence; format: in vivo, Setaria faberi; conditions: 10 days, 0 to 100 scale (0 no effect, 100 complete control)
# Outline: as §2
# [18] = system: ragweed; assay: Test C preemergence; format: in vivo, Ambrosia artemisiifolia
# Outline: as §2
# [19] = system: corn; assay: Test C postemergence; format: in vivo, Zea mays; conditions: 10 days, 0 to 100 scale (0 no effect, 100 complete control)
# Outline: as §2
# [20] = system: foxtail, giant; assay: Test C preemergence; format: in vivo, Setaria faberi
# Outline: as §2
# [21] = system: blackgrass; assay: Test C preemergence; format: in vivo, Alopecurus myosuroides
# Outline: as §2
# [22] = system: barnyardgrass; assay: Test C preemergence; format: in vivo, Echinochloa crusgalli
# Outline: as §2
# [23] = system: barnyardgrass; assay: Test C postemergence; format: in vivo, Echinochloa crusgalli; conditions: 10 days, 0 to 100 scale (0 no effect, 100 complete control)
# Outline: as §2
# [24] = system: kochia; assay: Test C postemergence; format: in vivo, Bassia scoparia; conditions: 10 days, 0 to 100 scale (0 no effect, 100 complete control)
# Outline: as §2
# [25] = system: pigweed, palmer; assay: Test C preemergence; format: in vivo, Amaranthus palmeri
# Outline: as §2
# [26] = system: wheat; assay: Test C preemergence; format: in vivo, Triticum aestivum
# Outline: as §2
# [27] = system: sedge, umbrella; assay: Test D flooded paddy test; format: in vivo, Cyperus difformis; conditions: 250 g ai/ha, applied to paddy water, visual rating after 13 to 14 days, scale 0 to 100 (0 no effect, 100 complete control)
# Outline: as §1
# [28] = system: ryegrass, Italian; assay: Test C postemergence; format: in vivo, Lolium multiflorum; conditions: 10 days, 0 to 100 scale (0 no effect, 100 complete control)
# Outline: as §2
# [29] = 500 g ai/ha, preemergence, 0 to 100 scale (0 no effect, 100 complete control)
# [30] = Preemergence, 125 g ai/ha, 0 to 100 scale, 0 no effect, 100 complete control
structure (smiles),measurement,setting,value
Cc1ncn(-c2cccc(C(=O)N3C[C@H](C)Oc4c(Cl)cccc43)c2)n1 [Compound 326],"Plant response rating, Ducksalad (Flood)",[1],80
same,"Plant response rating, Galium","[2]; 500 g ai/ha, postemergence",100
same,"Plant response rating, Galium","[2]; Postemergence, 125 g ai/ha",100
same,"Ryegrass, Italian plant response rating",[3]; [29],100
same,"Plant response rating, Ryegrass, Italian",[3]; [30],90
same,"Plant response rating, Horseweed","[4]; 500 g ai/ha, postemergence",50
same,"Plant response rating, Horseweed","[4]; Postemergence, 125 g ai/ha",0
same,Soybean plant response rating,[5]; [29],80
same,"Plant response rating, Soybean",[5]; [30],70
same,"Plant response rating, Pigweed, Palmer","[6]; 500 g ai/ha, postemergence",60
same,"Plant response rating, Pigweed, Palmer","[6]; Postemergence, 125 g ai/ha",20
same,"Plant response rating, Blackgrass","[7]; 500 g ai/ha, postemergence",80
same,"Plant response rating, Blackgrass","[7]; Postemergence, 125 g ai/ha",80
same,"Oat, Wild plant response rating",[8]; [29],80
same,"Plant response rating, Oat, Wild",[8]; [30],30
same,"Plant response rating, Ragweed","[9]; 500 g ai/ha, postemergence",60
same,"Plant response rating, Ragweed","[9]; Postemergence, 125 g ai/ha",10
same,Corn plant response rating,[10],40
same,"Plant response rating, Wheat","[11]; 500 g ai/ha, postemergence",40
same,"Plant response rating, Wheat","[11]; Postemergence, 125 g ai/ha",20
same,"Plant response rating, Soybean","[12]; 500 g ai/ha, postemergence",100
same,"Plant response rating, Soybean","[12]; Postemergence, 125 g ai/ha",100
same,Kochia plant response rating,[13]; [29],90
same,"Plant response rating, Kochia",[13]; [30],80
same,"Plant response rating, Oat, Wild","[14]; 500 g ai/ha, postemergence",50
same,"Plant response rating, Oat, Wild","[14]; Postemergence, 125 g ai/ha",20
same,"Plant response rating, Barnyardgrass (Flood)",[15],15
same,"Plant response rating, Rice (Flood)",[16],0
same,"Plant response rating, Foxtail, Giant","[17]; 500 g ai/ha, postemergence",90
same,"Plant response rating, Foxtail, Giant","[17]; Postemergence, 125 g ai/ha",70
same,Ragweed plant response rating,[18]; [29],0
same,"Plant response rating, Ragweed",[18]; [30],0
same,"Plant response rating, Corn","[19]; 500 g ai/ha, postemergence",80
same,"Plant response rating, Corn","[19]; Postemergence, 125 g ai/ha",10
same,"Foxtail, Giant plant response rating",[20]; [29],100
same,"Plant response rating, Foxtail, Giant",[20]; [30],100
same,Blackgrass plant response rating,[21]; [29],90
same,"Plant response rating, Blackgrass",[21]; [30],80
same,Barnyardgrass plant response rating,[22]; [29],90
same,"Plant response rating, Barnyardgrass",[22]; [30],60
same,"Plant response rating, Barnyardgrass","[23]; 500 g ai/ha, postemergence",80
same,"Plant response rating, Barnyardgrass","[23]; Postemergence, 125 g ai/ha",30
same,"Plant response rating, Kochia","[24]; 500 g ai/ha, postemergence",80
same,"Plant response rating, Kochia","[24]; Postemergence, 125 g ai/ha",80
same,"Pigweed, Palmer plant response rating",[25]; [29],100
same,"Plant response rating, Pigweed, Palmer",[25]; [30],60
same,Wheat plant response rating,[26]; [29],80
same,"Plant response rating, Wheat",[26]; [30],20
same,"Plant response rating, Sedge, Umbrella (Flood)",[27],95
same,"Plant response rating, Ryegrass, Italian","[28]; 500 g ai/ha, postemergence",80
same,"Plant response rating, Ryegrass, Italian","[28]; Postemergence, 125 g ai/ha",40
